Columns and labels:
STK [1] = assay: Fluorescent Polarization STK Assay (FP Assay); type: biochemical
STK [2] = assay: DiscoveRx STK HitHunter Assay; type: biochemical

SMILES	IC50 (STK [1]) [nM]	IC50 (STK [2]) [nM]
CN[C@@H]1C[C@H]2O[C@@](C)([C@@H]1OC)n1c3ccccc3c3c4c(c5c6ccccc6n2c5c31)C(=O)NC4 [staurosporine]	22	9
COC1C(N(C)CC(=O)O)CC2OC1(C)n1c3ccccc3c3c4c(c5c6ccccc6n2c5c31)C(=O)NC4 (stereo not shown) [STA-CM, N-carboxymethylstaurosporine]	220	92

From patent publication US6770451B2, “Screening for enzyme inhibitors” (Discoverx, Inc., priority 2001, dated 2004)
